From patent publication US20080051387A1, “TETRAHYDROPYRIDO[3,4-D]PYRIMIDINES AND RELATED ANALOGUES” (priority 2006, published 2008)

Target: T1, chimeric human H3 receptor (Homo sapiens, UniProt Q9Y5N1)
T1 construct: rat Galpha-i2 (Gnai2, rat); made in house; host or cells: Sf9 insect cells (baculovirus); P2 membranes
Assay: Chimeric human H3 receptor screening GTP binding assay (inhibition of histamine-stimulated GTP-gamma35S binding, Example 8)
Assay type: biochemical
Details: 1 h; assay described in Example 8; symbol "!" in column headed Ki; read-out: Ki ("!": percent inhibition of agonist-induced GTP-gammaS binding to H3)
How it was run: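 Sf9 membranes co-expressing chimeric human H3 receptor and heterotrimeric G-protein (35 μg protein) incubated 60 min at room temperature with 4 μM compound, 1 μM histamine and 125 pM GTP-gamma35S in pH 7.4 buffer with 10 μM GDP. Filter-bound radioactivity, nonspecific (10 μM GTP-gammaS) subtracted, reported as % inhibition of histamine signal.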

T1 sequence (Q9Y5N1 with tags, fused parts or gaps): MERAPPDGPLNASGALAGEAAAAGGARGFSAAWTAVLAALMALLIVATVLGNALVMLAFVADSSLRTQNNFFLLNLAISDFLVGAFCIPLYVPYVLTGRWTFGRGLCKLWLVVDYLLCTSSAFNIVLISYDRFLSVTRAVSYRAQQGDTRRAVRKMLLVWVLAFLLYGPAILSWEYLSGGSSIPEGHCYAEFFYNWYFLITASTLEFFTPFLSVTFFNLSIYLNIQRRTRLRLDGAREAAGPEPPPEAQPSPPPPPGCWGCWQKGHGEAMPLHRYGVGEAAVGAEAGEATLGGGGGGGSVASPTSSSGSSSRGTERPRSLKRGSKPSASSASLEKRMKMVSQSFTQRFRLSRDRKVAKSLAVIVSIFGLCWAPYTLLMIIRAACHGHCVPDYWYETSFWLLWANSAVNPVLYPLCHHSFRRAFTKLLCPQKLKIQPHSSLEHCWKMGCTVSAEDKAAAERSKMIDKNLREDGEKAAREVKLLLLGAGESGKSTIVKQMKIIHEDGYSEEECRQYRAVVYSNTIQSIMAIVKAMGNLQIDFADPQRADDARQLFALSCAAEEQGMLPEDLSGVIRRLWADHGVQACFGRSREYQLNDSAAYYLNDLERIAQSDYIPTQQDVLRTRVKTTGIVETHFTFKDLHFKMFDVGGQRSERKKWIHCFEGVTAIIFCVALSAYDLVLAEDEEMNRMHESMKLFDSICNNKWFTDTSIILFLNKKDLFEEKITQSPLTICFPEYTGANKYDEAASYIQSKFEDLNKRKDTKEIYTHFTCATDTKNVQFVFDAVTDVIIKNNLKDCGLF

| Structure (SMILES) | inhibition at 4 µM |
| --- | --- |
| COc1ccc(/C=C/C(=O)N2CCc3cnc(N4CCN(C5CCC5)CC4)nc3CC2)c(OC)c1OC [Compound 571, 2-(4-cyclobutylpiperazin-1-yl)-7-[(2E)-3-(2,3,4-trimethoxyphenyl)prop-2-enoyl]-6,7,8,9-tetrahydro-5H-pyrimido[4,5-d]azepine] | ≥ 90% |
| COc1cc(C(=O)N2CCc3cnc(N4CCN(C5CCC5)CC4)nc3CC2)cc(OC)c1OC [Compound 384, 2-(4-cyclobutylpiperazin-1-yl)-7-(3,4,5-trimethoxybenzoyl)-6,7,8,9-tetrahydro-5H-pyrimido[4,5-d]azepine] | ≥ 90% |
| CSc1ncc(Cl)c(C(=O)N2CCc3cnc(N4CCN(C5CCC5)CC4)nc3CC2)n1 [Compound 479, 7-{[5-chloro-2-(methylthio)pyrimidin-4-yl]carbonyl}-2-(4-cyclobutylpiperazin-1-yl)-6,7,8,9-tetrahydro-5H-pyrimido[4,5-d]azepine] | ≥ 90% |
| O=C(c1csc(-c2ccncc2)n1)N1CCc2cnc(N3CCN(C4CCC4)CC3)nc2CC1 [Compound 530, 2-(4-cyclobutylpiperazin-1-yl)-7-[(2-pyridin-4-yl-1,3-thiazol-4-yl)carbonyl]-6,7,8,9-tetrahydro-5H-pyrimido[4,5-d]azepine] | ≥ 90% |
| Cc1ccc(C)c(/C=C/C(=O)N2CCc3cnc(N4CCN(C5CCC5)CC4)nc3CC2)c1 [Compound 577, 2-(4-cyclobutylpiperazin-1-yl)-7-[(2E)-3-(2,5-dimethylphenyl)prop-2-enoyl]-6,7,8,9-tetrahydro-5H-pyrimido[4,5-d]azepine] | ≥ 90% |

Same assay, conditions: 1 h; assay of Example 8; symbol "!" in column headed Ki; read-out: percent inhibition of agonist-induced GTP-gammaS binding to H3

| Structure (SMILES) | inhibition at 4 µM |
| --- | --- |
| O=C(c1ccco1)N1CCc2cnc(N3CCN(C4CCC4)CC3)nc2CC1 [Compound 196, 2-(4-cyclobutylpiperazin-1-yl)-7-(2-furoyl)-6,7,8,9-tetrahydro-5H-pyrimido[4,5-d]azepine] | ≥ 90% |
| O=C(Cc1cccc(C(F)(F)F)c1)N1CCc2cnc(N3CCN(C4CCC4)CC3)nc2CC1 [Compound 288, 2-(4-cyclobutylpiperazin-1-yl)-7-{[3-(trifluoromethyl)phenyl]acetyl}-6,7,8,9-tetrahydro-5H-pyrimido[4,5-d]azepine] | ≥ 90% |
| CC(Oc1ccccc1)C(=O)N1CCc2cnc(N3CCN(C4CCC4)CC3)nc2CC1 (stereo not shown) [Compound 339, 2-(4-cyclobutylpiperazin-1-yl)-7-(2-phenoxypropanoyl)-6,7,8,9-tetrahydro-5H-pyrimido[4,5-d]azepine] | ≥ 90% |
| O=C(Cc1ccccc1Cl)N1CCc2cnc(N3CCN(C4CCC4)CC3)nc2CC1 [Compound 294, 7-[(2-chlorophenyl)acetyl]-2-(4-cyclobutylpiperazin-1-yl)-6,7,8,9-tetrahydro-5H-pyrimido[4,5-d]azepine] | ≥ 90% |
| CCn1nc(C)cc1C(=O)N1CCc2cnc(N3CCN(C4CCC4)CC3)nc2CC1 [Compound 204, 2-(4-cyclobutylpiperazin-1-yl)-7-[(1-ethyl-3-methyl-1H-pyrazol-5-yl)carbonyl]-6,7,8,9-tetrahydro-5H-pyrimido[4,5-d]azepine] | ≥ 90% |
| c1ccc2c(CN3CCc4cnc(N5CCN(C6CCC6)CC5)nc4CC3)ccnc2c1 [Compound 236, 2-(4-cyclobutylpiperazin-1-yl)-7-(quinolin-4-ylmethyl)-6,7,8,9-tetrahydro-5H-pyrimido[4,5-d]azepine] | ≥ 90% |
| O=C(Cc1ccc(Cl)cc1)N1CCc2cnc(N3CCN(C4CCC4)CC3)nc2CC1 [Compound 285, 7-[(4-chlorophenyl)acetyl]-2-(4-cyclobutylpiperazin-1-yl)-6,7,8,9-tetrahydro-5H-pyrimido[4,5-d]azepine] | ≥ 90% |
| COc1cccc(C(=O)N2CCc3cnc(N4CCN(C5CCC5)CC4)nc3CC2)c1 [Compound 190, 2-(4-cyclobutylpiperazin-1-yl)-7-(3-methoxybenzoyl)-6,7,8,9-tetrahydro-5H-pyrimido[4,5-d]azepine] | ≥ 90% |
| c1cc2c(cc1CN1CCc3cnc(N4CCN(C5CCC5)CC4)nc3CC1)OCCO2 [Compound 258, 2-(4-cyclobutylpiperazin-1-yl)-7-(2,3-dihydro-1,4-benzodioxin-6-ylmethyl)-6,7,8,9-tetrahydro-5H-pyrimido[4,5-d]azepine] | ≥ 90% |
| O=C(c1ccc(C(F)(F)F)cc1)N1CCc2cnc(N3CCN(C4CCC4)CC3)nc2CC1 [Compound 269, 2-(4-cyclobutylpiperazin-1-yl)-7-[4-(trifluoromethyl)benzoyl]-6,7,8,9-tetrahydro-5H-pyrimido[4,5-d]azepine] | ≥ 90% |
| O=C(c1ccc(F)cc1)N1CCc2cnc(N3CCN(C4CCC4)CC3)nc2CC1 [Compound 194, 2-(4-cyclobutylpiperazin-1-yl)-7-(4-fluorobenzoyl)-6,7,8,9-tetrahydro-5H-pyrimido[4,5-d]azepine] | ≥ 90% |

Same assay, conditions: symbol ! in Ki; test compound 4 μM, 1 μM histamine; read-out: percent inhibition of agonist-induced GTP-gammaS binding to H3

| Structure (SMILES) | inhibition at 4 µM |
| --- | --- |
| Cc1cccc(C(=O)N2CCc3c(ncnc3N3CCN(C4CCC4)CC3)C2)c1 [Compound 23, 4-(4-cyclobutylpiperazin-1-yl)-7-(3-methylbenzoyl)-5,6,7,8-tetrahydropyrido[3,4-d]pyrimidine] | ≥ 90% |
| CCCC(=O)N1CCc2c(ncnc2N2CCN(C3CCC3)CC2)C1 [Compound 43, 7-butyryl-4-(4-cyclobutylpiperazin-1-yl)-5,6,7,8-tetrahydropyrido[3,4-d]pyrimidine] | ≥ 90% |
| Cc1cccc(CN2CCc3ncnc(N4CCN(C5CCC5)CC4)c3CC2)c1 [Compound 148, 4-(4-cyclobutylpiperazin-1-yl)-7-(3-methylbenzyl)-6,7,8,9-tetrahydro-5H-pyrimido[4,5-d]azepine] | ≥ 90% |
| CC(c1ccccc1)N1CCc2c(ncnc2N2CCN(C3CCC3)CC2)C1 (stereo not shown) [Compound 101, 4-(4-cyclobutylpiperazin-1-yl)-7-(1-phenylethyl)-5,6,7,8-tetrahydropyrido[3,4-d]pyrimidine] | ≥ 90% |
| COc1ccc(CN2CCc3ncnc(N4CCN(C5CCC5)CC4)c3CC2)c(OC)c1 [Compound 158, 4-(4-cyclobutylpiperazin-1-yl)-7-(2,4-dimethoxybenzyl)-6,7,8,9-tetrahydro-5H-pyrimido[4,5-d]azepine] | ≥ 90% |
| O=C(C1CCOC1)N1CCc2c(ncnc2N2CCN(C3CCC3)CC2)C1 (stereo not shown) [Compound 58, 4-(4-cyclobutylpiperazin-1-yl)-7-(tetrahydrofuran-3-ylcarbonyl)-5,6,7,8-tetrahydropyrido[3,4-d]pyrimidine] | ≥ 90% |
| COc1ccc(CN2CCc3nc(N4CCN(C5CCC5)CC4)ncc3C2)c(OC)c1 [Compound 624, 2-(4-cyclobutylpiperazin-1-yl)-6-(2,4-dimethoxybenzyl)-5,6,7,8-tetrahydropyrido[4,3-d]pyrimidine] | ≥ 90% |
| Cc1cccc(C(C)N2CCc3c(ncnc3N3CCN(C4CCC4)CC3)C2)c1 (stereo not shown) [Compound 105, 4-(4-cyclobutylpiperazin-1-yl)-7-[1-(3-methylphenyl)ethyl]-5,6,7,8-tetrahydropyrido[3,4-d]pyrimidine] | ≥ 90% |
| O=C(c1ccc(F)cc1)N1CCc2c(ncnc2N2CCN(C3CCC3)CC2)C1 [Compound 30, 4-(4-cyclobutylpiperazin-1-yl)-7-(4-fluorobenzoyl)-5,6,7,8-tetrahydropyrido[3,4-d]pyrimidine] | ≥ 90% |
